Key:
[1] = tested on: LNCaP, LNCaP-KD, PC3-PSMA and PC3-wt cells; experiment: In vitro chemotherapy, cell viability (Alamar blue); details: 200 nM, overnight
Procedure: Cells were seeded in a 96-well format (2,500 cells per well), and grown for 48 h. They were then treated with the following drugs at a final concentration of 200 nM: Doxorubicin, Taxol, AZD6244, BEZ235, Lapatinib, and Velcade (all purchased from Selleck Chemicals, Houston, Tex.). For combination therapy, cells were treated with 2-PMPA (5 μM final concentration). After overnight incubation in the presence of the drugs, cell viability was determined with the Alamar blue method according to the supplier's guidelines (Life Technologies, Carlsbad, Calif.)
Given that PSMA affects the phosphorylation status of multiple targets, it was investigated whether inhibition of PSMA can counteract resistance to various chemotherapeutics used in the clinic or under clinical trials. LNCaP and PCS3-PSMA cells were seeded at a density of 2,500 cells per well in a 96-well format, and after 48 hours growth the cells were treated with the drugs (Doxorubicin (Adriamycin; DNA intercalator), Taxol (Paclitaxel; microtubule stabilizer), AZD6244 (Selumetinib; MEK1 & ERK1/2 inhibitor), BEZ235 (Dactolisib; PI3K & mTOR inhibitor), Lapatinib (EGFR and ErbB2 inhibitor), or Velcade (Bortezomib; 20S proteasome inhibitor), 200 nM final concentration in 1×PBS) or with the drugs (200 nM final concentration) and 2-PMPA (5 μM final concentration). After overnight incubation, cell viability was assessed fluorimetrically with the Alamar blue method (Invitrogen), according to the supplier's protocol.

[2] = tested on: PSMA-expressing prostate cancer cells (LNCaP-wt, PC3-hPSMA) and PC3-wt; experiment: Cytoplasmic calcium quantification (Fluo4 assay); assay type: cell-based, human
Procedure: Cells were seeded at a density of 10,000 per well on a 96-well plate and grown overnight. Loading of the calcium-sensing dye Fluo4 (Life Technologies, Calrsbad, Calif.) was performed according to the manufacturer's instructions. Where indicated the cells were treated with thapsigargin (1 μM, Tocris, Minneapolis, Minn.), L-Quisqualic acid (110 μM, Tocris), 3,5-DHPG (0.67 mM, Tocris), L-AP3 (125 μM, Tocris), U73122 (50 μM, Tocris), and 2-PMPA (100 μM, Tocris) immediately before measuring calcium levels, with a SpectraMax M5 plate reader (Molecular Devices, Sunnyvale, Calif.).
The effect of PSMA expression on calcium homeostasis in prostate cancer cell lines was evaluated using the fluorimetric Fluo4 assay kit (Invitrogen), according to the supplier's instructions. The plate was excited at 490 nm, and fluorescence emission was monitored at 520 nm with the SpectraMax M5 plate reader (Molecular Devices). […] To examine calcium accumulation in the cytoplasm, the cells were treated with thapsigargin (1 μM, Tocris) immediately prior to taking measurements with the plate reader. […] Furthermore, we investigated whether PSMA facilitates calcium signaling via the mGluR Group I receptors through its enzymatic activity. The cells were treated with either L-Quisqualic acid (110 μM; mGluR I agonist, Tocris), L-AP3 (125 μM; mGluR I antagonist, Tocris) or a PSMA inhibitor (100 μM, Tocris), immediately prior to taking calcium measurements.

SMILES: CC(C)C[C@H](NC(=O)[C@H](Cc1ccccc1)NC(=O)c1cnccn1)B(O)O [Velcade, Bortezomib]
- sensitivity of PC3-wt cells compared with PC3-PSMA [1]: more sensitive

SMILES: N[C@@H](CP(=O)(O)O)C(=O)O [L-AP3]
- cytoplasmic calcium levels ([2]; PSMA-expressing cells, PSMA inhibitor 100 μM, L-AP3 125 μM, FIG. 1c): lowered calcium levels

SMILES: COc1ccc2c(c1)CC[C@@H]1[C@@H]2CC[C@]2(C)[C@@H](NCCCCCCN3C(=O)C=CC3=O)CC[C@@H]12 [U73122]
- cytoplasmic calcium levels ([2]; PSMA inhibition compared with Phospholipase C inhibitor U73122 50 μM, FIG. 1d): reduction in calcium levels

SMILES: C/C=C(/C)C(=O)O[C@H]1C(C)=C2[C@H]([C@@H]1OC(=O)CCCCCCC)[C@@](C)(OC(C)=O)C[C@H](OC(=O)CCC)[C@@]1(O)[C@H]2OC(=O)[C@@]1(C)O [thapsigargin]
- calcium accumulation in the cytoplasm ([2]; thapsigargin 1 μM, PSMA-expressing cells versus PC3-wt, FIG. 1b): significant buildup of calcium in their cytoplasm

— patent US20170252433A1, “PSMA-RELATED THERAPIES” (Memorial Sloan Kettering Cancer Center, priority 2014, published 2017)
